Data on eight compounds can be found in ChEMBL document CHEMBL1201862, “PubChem BioAssay data set” (2004).

The term GI50 denotes the concentration at which growth is held to half of that of the control.

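Where inhibition never reached the appropriate level, the endpoint shown equals the highest concentration tested. Otherwise, values were interpolated linearly from a five-concentration, 48-hour dose response in 96-well plates. GI50 is the concentration that inhibits growth by half.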 Active and inactive are the calls of the source. No stated cut-off is given here; in the data, active = GI50 up to about 1.1 µM and inactive = higher.

Holding throughout (experiment): DTP human tumour cell line panel, 48 h
The test system of assay [1] is SK-MEL-28.
In assay [2] the test system is DMS-273.
Assay [3] relates to NCI-H460.
Assay [4] relates to KM-20L2.
Assay [5] has as its system HT-29.
Assay [6] has as its system HCC 2998.
Assay [7] relates to SF-268.
Assay [8] has as its system K562.
The subject of assay [9] is 786-0.
For assay [10], the system named is DMS-114.
For assay [11], the system named is NCI-H23.
Assay [12] deals with OVCAR-5.
Assay [13] relates to LOX IMVI.
In assay [14] the test system is RXF 393.
For assay [15], the system named is HOP-92.
Assay [16] has as its system MDA-MB-435.
The subject of assay [17] is BT-549.
In assay [18] the test system is MCF7.

Turning to `N#CCCN(c1ccc(/C=N/c2ccc(C(=O)O)cc2)cc1)S(=O)(=O)c1ccccc1`, the GI50 in assay [1], in [2], in assay [3], in [4], in assay [5] and in [6] was > 100 µM (inactive) in each case. The GI50 in assay [7], in [8], in assay [9], in [10], in assay [11] and in assay [12] was > 100 µM (inactive) in each case. The GI50 in assay [13], in [14] and in [15] was > 100 µM (inactive) each time.
With `NC(=O)CCC(NC(=O)C(F)(F)F)C(=O)O` (stereo not drawn), the GI50 in assay [1], in assay [2], in assay [3], in assay [4], in [5] and in assay [6] was > 100 µM (inactive) in each case. Also, the GI50 in assay [7], in assay [8], in [9], in [10], in [11] and in assay [12] was > 100 µM (inactive) each time. Moreover, the GI50 in assay [13], in assay [14] and in assay [15] was > 100 µM (inactive) throughout.
Consider `Cc1nnc2c3nnc(C)n3c3ccccc3n12`, for which the GI50 in assay [1], in assay [2], in assay [3], in assay [4], in assay [5] and in [6] was > 100 µM (inactive) each time. Further, the GI50 in assay [7], in [8], in assay [9], in [10], in assay [11] and in assay [12] was > 100 µM (inactive) each time. The GI50 in [13], in assay [14] and in [15] was > 100 µM (inactive) in each case.
Consider `C#C[C@@H](CCCC)OC(=O)N[C@H](C)c1ccccc1`, for which the GI50 was > 100 µM (inactive) in [1]; 37.2 µM (inactive) in assay [2]; 56.6 µM (inactive) in assay [3]; 51.8 µM (inactive) in assay [4]; 40.3 µM (inactive) in [5]; 1.96 µM (inactive) in assay [6]. For the same compound, the GI50 was 2.17 µM (inactive) in assay [7]; 31.9 µM (inactive) in [8]; 59.6 µM (inactive) in [9]; 25.1 µM (inactive) in assay [10]; 1.91 µM (inactive) in assay [11]; 33 µM (inactive) in assay [12]. In addition, the GI50 in assay [13] is 33.2 µM (inactive); in assay [14], 2.36 µM (inactive); in assay [15], 1.83 µM (inactive).
`CC(C)C(=O)NC(=S)Nc1ccc([N+](=O)[O-])cc1C#N`: the GI50 in assay [1], in assay [2], in assay [3], in [4], in assay [5] and in assay [6] was > 100 µM (inactive) in each case. In addition, the GI50 in assay [7], in assay [8], in assay [9], in [10], in assay [11] and in assay [12] was > 100 µM (inactive) in each case. The GI50 in assay [13], in assay [14] and in assay [15] was > 100 µM (inactive) throughout.
Regarding `C/C(=N\NC(=S)N1CC2CCC(CC2)C1)c1nccs1`, the GI50 in assay [1] was 1.1 µM (active); in [2], 0.127 µM (active); in [3], 0.0483 µM (active); in assay [4], < 0.01 µM (active); in assay [16], 0.413 µM (active); in assay [5], 0.07 µM (active). Besides, the GI50 in [6] was 0.268 µM (active); in [7], 0.294 µM (active); in [17], 1.07 µM (active); in assay [8] it was < 0.01 µM (active); in assay [18], < 0.0258 µM (active); in [9], 0.25 µM (active). Further, the GI50 in [10] was < 0.0148 µM (active); in [11], 0.434 µM (active); in assay [12] it was 0.143 µM (active); in assay [13] it was 0.271 µM (active); in assay [14], 0.336 µM (active); in [15], 0.646 µM (active).
Consider `C=CCc1ccc(Oc2cc(CC=C)c3c(c2O)O[C@@H](CO)[C@H]3c2ccc(O)c(-c3cc(CC=C)ccc3O)c2)cc1`, for which the GI50 in [1] is 25.8 µM (inactive); in assay [2], 42.9 µM (inactive); in [3], 24 µM (inactive); in [4] it was 32.9 µM (inactive); in [5], 23.4 µM (inactive); in assay [6] it was 45.9 µM (inactive). For the same compound, the GI50 in [7] is 58.7 µM (inactive); in assay [8], 37.6 µM (inactive); in [9] it was 54 µM (inactive); in [10], 22.5 µM (inactive); in assay [11], 47.3 µM (inactive); in assay [12], > 100 µM (inactive). Further, the GI50 in assay [13] is 16.5 µM (inactive); in assay [14], 65.2 µM (inactive); in assay [15], 52.2 µM (inactive).
`O=C1/C(=C/c2ccc(Cl)cc2)COc2ccc(Br)cc21`: the GI50 in [1], in [2], in assay [3], in assay [4], in [5] and in assay [6] was > 100 µM (inactive) each time. The GI50 in assay [7], in [8], in assay [9], in [10], in assay [11] and in assay [12] was > 100 µM (inactive) in each case. For the same compound, the GI50 is > 100 µM (inactive) in assay [13], 50.5 µM (inactive) in assay [14] and > 100 µM (inactive) in [15].
